One compound from US11464751B2, “Use of fluoroethylnormemantine for the prevention and treatment of anxiety” (REST THERAPEUTICS, priority 2017, dated 2022) can be followed below.

The test system of the experiment is naive rats (Wistar). The experiment can be described thus: Open-field test with light gradient. The format is in vivo, rat. As for the experimental part: Thus, to test state anxiety, several animal models are commonly used and have been validated by numerous studies: • open field test: This consists of forcibly exposing the animal (rat or mouse) to a new environment and observing its behavior. […] Locomotor activity and behavior are then assessed by recording the number of crossings of the grid lines, the frequency of retreats, the number of entries and the time spent in the central squares. This animal model is considered a good model of “normal” anxiety when adapting to a new environment. It has good predictability of human response to treatment (L. Prut, European Journal of Pharmacology 463 (2003) 3-33). The open-field test is also useful, when it is prolonged (behavioral recording time over 2 hours), as it allows monitoring the motor activity of the animals and thus their state of wakefulness, whereas measurements at short times give information on anxiety. • the light-dark box test: another animal model of anxiety is based on the aversive properties of an open-field space and on the comparison of exploratory activities in a lit compartment and in a dark compartment under the influence of anxiolytic substances (M Bourin, European Journal of Pharmacology 463 (2003) 55-65). This paradigm is based on rodents' innate aversion to bright places and on rodents' spontaneous exploratory behavior in response to stressful environments (new environment or light). The test device is divided into two compartments, one is small, dark and safe, the second is large, bright and stressful. This paradigm allows the prediction of anxiolytic or anxiogenic drug-like activities in mice. Passages between each compartment are a cue of exploration activity, while the time spent in each compartment reflects aversion. Anxiolytics, effective in humans, classic (benzodiazepines) as well as more recent anxiolytic compounds (serotonergic drugs or drugs acting on neuropeptide receptors) can be detected by this animal model which has the advantage of being simple and quick to use. • The open-field test with light gradient: the two models described above can be judiciously coupled in order to check the anxiolytic potential of a molecule, by eliminating the “burrow” effect induced by the presence of the dark compartment.
In the following examples, the effects of memantine, propranolol and fluoroethylnormemantine (FENM, the subject of the present invention) are studied in naive rats (Wistar) subjected to various tests related to depression or anxiety and then compared.
The test substances are administered to rats intraperitoneally in a volume of 5 ml/kg, 30 minutes before the behavioral tests are performed.
The injected solutions contain either of the molecules in the form of one of their salts, a hydrochloride (memantine·HCl and FENM·HCl) for the nitrogen derivatives and as such for propranolol, at the concentrations indicated below in a mixture of 95% (NaCl 0.9% ww in water)/5% ethanol. In each experiment, the dose per kilogram is referenced.
For each paradigm, and each solution tested, 12 rats are subjected to injection and behavioral testing. The control solution is a saline solution.
In this example the light-dark box test was modified by eliminating the compartmentalization of the box and using a high-intensity light gradient (600 lux). As it is based on rodents' innate aversion to light, the increase in time spent in the area closest to the light source is therefore considered to reflect a lower level of anxiety.
The animals are exposed to a 12-minute sequence, broken down into three parts, 4 minutes in darkness (ambient light of 5 lux), 4 minutes in the presence of the light gradient and 4 minutes again in darkness. Displacements are recorded in the same way as for the open-field test. The field of view is divided into 4 zones numbered from 1 to 4 according to the increasing distance from the light source.

The structures appear in SMILES notation.

For `NC12CC3CC(C1)CC(CCF)(C3)C2`, the “Percentage of time spent in the area closest to the light source” value by setting is: (5 mg/kg i.p., Dark 1 (Habituation)) 32%; (5 mg/kg i.p., Dark 2 (Relief)) 30%; (5 mg/kg i.p., Light 600 lux (Stress)) 22%; (10 mg/kg i.p., Dark 1 (Habituation)) 29%; (10 mg/kg i.p., Dark 2 (Relief)) 34%; (10 mg/kg i.p., Light 600 lux (Stress)) 30%. For the same compound, the “Percentage of time spent in the area closest to the light source” value reads like this: (20 mg/kg i.p., Dark 1 (Habituation)) 39%; (20 mg/kg i.p., Dark 2 (Relief)) 29%; (20 mg/kg i.p., Light 600 lux (Stress)) 21%. For the setting “10 mg/kg dose”, the “anxiety effect (avoidance of the most strongly illuminated area)” value is reported as “completely eliminated”.
